Assay in all cases: biochemical
Assay type in all cases: biochemical

For experiment [1], the target named is T1, 382 unique human kinases (Homo sapiens, UniProt P10721, V654A).
T1 construct: purchased Reaction Biology (HotSpot contract assay)
As to conditions: kinase c-Kit (V654A), compound 10 uM; for remaining activity at 10 µM: read-out: % Enzyme Activity (relative to DMSO controls).

For experiment [2], the target named is T2, 382 unique human kinases (Homo sapiens, UniProt Q05397).
T2 construct: purchased Reaction Biology (HotSpot contract assay)
T2 sequence (Q05397 whole entry): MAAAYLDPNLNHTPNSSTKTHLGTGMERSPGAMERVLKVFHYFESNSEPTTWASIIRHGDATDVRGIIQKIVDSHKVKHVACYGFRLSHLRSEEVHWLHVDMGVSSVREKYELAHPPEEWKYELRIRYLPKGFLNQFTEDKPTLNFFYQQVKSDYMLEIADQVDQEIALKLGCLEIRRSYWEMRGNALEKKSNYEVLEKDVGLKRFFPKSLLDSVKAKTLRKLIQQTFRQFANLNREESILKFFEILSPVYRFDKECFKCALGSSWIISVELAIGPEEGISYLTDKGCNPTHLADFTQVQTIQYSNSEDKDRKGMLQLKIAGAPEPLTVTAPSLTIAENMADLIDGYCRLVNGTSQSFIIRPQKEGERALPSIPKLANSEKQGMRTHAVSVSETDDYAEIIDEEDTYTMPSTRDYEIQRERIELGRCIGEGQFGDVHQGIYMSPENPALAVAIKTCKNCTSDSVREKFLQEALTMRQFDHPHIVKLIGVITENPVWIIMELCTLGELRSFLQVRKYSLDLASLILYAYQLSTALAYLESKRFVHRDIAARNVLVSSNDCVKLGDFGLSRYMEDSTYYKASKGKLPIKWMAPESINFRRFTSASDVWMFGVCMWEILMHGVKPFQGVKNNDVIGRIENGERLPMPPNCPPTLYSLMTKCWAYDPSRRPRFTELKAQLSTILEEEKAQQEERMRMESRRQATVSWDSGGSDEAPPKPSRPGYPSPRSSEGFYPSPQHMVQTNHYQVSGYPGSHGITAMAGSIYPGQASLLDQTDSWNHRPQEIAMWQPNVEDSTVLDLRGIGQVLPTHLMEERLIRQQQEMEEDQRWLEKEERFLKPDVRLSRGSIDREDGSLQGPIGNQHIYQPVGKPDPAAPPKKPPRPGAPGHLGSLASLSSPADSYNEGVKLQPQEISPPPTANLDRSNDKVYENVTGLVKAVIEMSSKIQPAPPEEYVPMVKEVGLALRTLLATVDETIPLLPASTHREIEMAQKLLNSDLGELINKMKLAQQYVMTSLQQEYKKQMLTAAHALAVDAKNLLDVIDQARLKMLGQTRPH
As to conditions: kinase FAK/PTK2, compound 10 uM; for remaining activity at 10 µM: read-out: % Enzyme Activity (relative to DMSO controls).

The target of experiment [3] is T3, 382 unique human kinases (Homo sapiens, UniProt Q8TDX7).
T3 construct: purchased Reaction Biology (HotSpot contract assay)
T3 sequence (Q8TDX7 whole entry): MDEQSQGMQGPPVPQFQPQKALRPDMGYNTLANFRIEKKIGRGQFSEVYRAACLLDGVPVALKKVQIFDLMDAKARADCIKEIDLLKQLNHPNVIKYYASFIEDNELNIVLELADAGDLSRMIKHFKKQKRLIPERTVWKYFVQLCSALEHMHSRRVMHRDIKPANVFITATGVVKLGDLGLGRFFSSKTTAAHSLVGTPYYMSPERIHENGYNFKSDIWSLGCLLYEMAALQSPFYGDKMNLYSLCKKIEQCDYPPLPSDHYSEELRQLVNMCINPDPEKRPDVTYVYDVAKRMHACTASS
The following applies: NEK7, compound at 10 uM, duplicate values; for remaining activity at 10 µM: read-out: % Enzyme Activity (relative to DMSO controls).

The target in experiment [4] is T4, 382 unique human kinases (Homo sapiens, UniProt Q06187, E41K).
T4 construct: purchased Reaction Biology (HotSpot contract assay)
T4 sequence (Q06187 whole entry E41K): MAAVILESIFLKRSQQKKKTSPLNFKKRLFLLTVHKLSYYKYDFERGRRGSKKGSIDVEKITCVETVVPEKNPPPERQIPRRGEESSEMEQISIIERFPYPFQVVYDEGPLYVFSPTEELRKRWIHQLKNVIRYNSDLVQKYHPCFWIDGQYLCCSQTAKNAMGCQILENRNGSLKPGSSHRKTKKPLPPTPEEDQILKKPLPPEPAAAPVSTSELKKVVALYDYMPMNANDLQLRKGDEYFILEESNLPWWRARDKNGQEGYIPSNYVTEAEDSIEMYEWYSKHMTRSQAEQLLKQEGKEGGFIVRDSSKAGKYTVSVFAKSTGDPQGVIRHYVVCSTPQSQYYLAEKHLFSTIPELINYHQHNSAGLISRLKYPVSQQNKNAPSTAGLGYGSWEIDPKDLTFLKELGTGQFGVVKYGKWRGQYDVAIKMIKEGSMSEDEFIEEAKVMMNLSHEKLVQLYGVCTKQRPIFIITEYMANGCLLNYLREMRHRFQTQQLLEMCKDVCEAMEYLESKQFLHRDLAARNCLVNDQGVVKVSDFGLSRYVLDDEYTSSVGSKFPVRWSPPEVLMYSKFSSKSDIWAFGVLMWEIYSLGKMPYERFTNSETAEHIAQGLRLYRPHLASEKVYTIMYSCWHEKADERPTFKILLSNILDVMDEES
The following applies: BTK (E41K), 10 uM; for remaining activity at 10 µM: read-out: % Enzyme Activity (relative to DMSO controls).

For experiment [5], the target named is T5, 382 unique human kinases (Homo sapiens, UniProt Q9BXA7).
T5 construct: purchased Reaction Biology (HotSpot contract assay)
T5 sequence (Q9BXA7 1-367): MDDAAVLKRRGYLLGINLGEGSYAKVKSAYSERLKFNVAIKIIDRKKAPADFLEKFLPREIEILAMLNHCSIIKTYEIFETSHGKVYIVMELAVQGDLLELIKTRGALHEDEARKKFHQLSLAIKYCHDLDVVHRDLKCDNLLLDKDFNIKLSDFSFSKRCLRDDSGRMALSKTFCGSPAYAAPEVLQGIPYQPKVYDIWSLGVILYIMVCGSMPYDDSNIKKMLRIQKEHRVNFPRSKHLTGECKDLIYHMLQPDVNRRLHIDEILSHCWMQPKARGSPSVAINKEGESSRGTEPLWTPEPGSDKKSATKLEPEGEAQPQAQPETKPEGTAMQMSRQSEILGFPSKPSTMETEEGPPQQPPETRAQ
The following applies: STK22D/TSSK1, 10 uM; for remaining activity at 10 µM: read-out: % Enzyme Activity (relative to DMSO controls).

In experiment [6] the target is T6, 382 unique human kinases (Homo sapiens, UniProt Q9H093).
T6 construct: purchased Reaction Biology (HotSpot contract assay)
T6 sequence (Q9H093 1-628): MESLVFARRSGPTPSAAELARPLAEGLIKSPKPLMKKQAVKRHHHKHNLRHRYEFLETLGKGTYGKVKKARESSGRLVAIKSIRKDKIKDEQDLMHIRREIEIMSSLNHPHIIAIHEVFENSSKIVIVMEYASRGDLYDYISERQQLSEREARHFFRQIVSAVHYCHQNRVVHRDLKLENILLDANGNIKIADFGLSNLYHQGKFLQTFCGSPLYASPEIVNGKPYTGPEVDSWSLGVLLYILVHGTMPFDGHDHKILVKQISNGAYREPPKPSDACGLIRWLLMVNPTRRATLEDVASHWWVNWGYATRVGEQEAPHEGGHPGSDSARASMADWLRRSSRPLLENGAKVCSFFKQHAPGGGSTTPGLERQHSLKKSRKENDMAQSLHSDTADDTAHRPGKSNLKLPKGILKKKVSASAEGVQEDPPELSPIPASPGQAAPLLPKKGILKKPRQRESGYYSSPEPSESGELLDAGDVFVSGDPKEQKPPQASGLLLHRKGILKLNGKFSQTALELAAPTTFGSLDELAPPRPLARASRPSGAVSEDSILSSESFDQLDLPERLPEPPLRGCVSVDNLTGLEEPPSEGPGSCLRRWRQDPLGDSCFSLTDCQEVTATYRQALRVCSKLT
The following applies: SNARK/NUAK2, 10 uM; for remaining activity at 10 µM: read-out: % Enzyme Activity (relative to DMSO controls).

In experiment [7] the target is T7, 382 unique human kinases (Homo sapiens, UniProt P21709).
T7 construct: purchased Reaction Biology (HotSpot contract assay)
T7 sequence (P21709 26-976): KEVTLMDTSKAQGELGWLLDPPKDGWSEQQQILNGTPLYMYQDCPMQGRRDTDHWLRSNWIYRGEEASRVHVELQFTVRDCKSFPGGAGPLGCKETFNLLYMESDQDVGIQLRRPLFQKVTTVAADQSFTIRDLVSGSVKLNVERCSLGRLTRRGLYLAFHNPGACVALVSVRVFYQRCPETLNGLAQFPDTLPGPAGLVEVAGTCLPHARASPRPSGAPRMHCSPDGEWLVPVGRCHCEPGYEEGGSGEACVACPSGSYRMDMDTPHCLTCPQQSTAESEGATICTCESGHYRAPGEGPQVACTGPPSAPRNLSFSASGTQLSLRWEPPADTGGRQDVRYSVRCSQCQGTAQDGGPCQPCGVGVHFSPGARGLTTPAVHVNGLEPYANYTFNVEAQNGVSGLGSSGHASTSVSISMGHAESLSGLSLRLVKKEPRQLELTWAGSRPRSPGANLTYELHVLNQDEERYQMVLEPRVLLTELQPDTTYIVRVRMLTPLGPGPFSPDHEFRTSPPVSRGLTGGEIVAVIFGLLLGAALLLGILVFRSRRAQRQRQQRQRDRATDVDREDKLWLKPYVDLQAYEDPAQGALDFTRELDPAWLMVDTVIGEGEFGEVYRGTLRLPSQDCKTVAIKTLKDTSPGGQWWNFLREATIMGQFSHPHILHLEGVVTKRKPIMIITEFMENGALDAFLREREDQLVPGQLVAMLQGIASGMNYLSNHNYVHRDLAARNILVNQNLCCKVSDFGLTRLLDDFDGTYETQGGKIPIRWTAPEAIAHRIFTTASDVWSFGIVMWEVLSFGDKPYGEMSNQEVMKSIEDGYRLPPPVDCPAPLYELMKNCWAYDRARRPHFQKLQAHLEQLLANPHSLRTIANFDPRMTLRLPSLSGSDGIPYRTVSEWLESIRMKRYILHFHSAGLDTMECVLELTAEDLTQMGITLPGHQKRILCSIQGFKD
The following applies: EPHA1, [ATP] 20 µM, compound 10 uM; for remaining activity at 10 µM: read-out: % Enzyme Activity (relative to DMSO controls).

The target in experiment [8] is T8, 382 unique human kinases (Homo sapiens, UniProt P00519, G250E).
T8 construct: purchased Reaction Biology (HotSpot contract assay)
As to conditions: ABL1 (G250E), [ATP] 10 µM, compound 10 uM; for remaining activity at 10 µM: read-out: % Enzyme Activity (relative to DMSO controls).

Experiment [9] deals with T9, 382 unique human kinases (Homo sapiens, UniProt Q9HAZ1).
T9 construct: purchased Reaction Biology (HotSpot contract assay)
T9 sequence (Q9HAZ1 whole entry): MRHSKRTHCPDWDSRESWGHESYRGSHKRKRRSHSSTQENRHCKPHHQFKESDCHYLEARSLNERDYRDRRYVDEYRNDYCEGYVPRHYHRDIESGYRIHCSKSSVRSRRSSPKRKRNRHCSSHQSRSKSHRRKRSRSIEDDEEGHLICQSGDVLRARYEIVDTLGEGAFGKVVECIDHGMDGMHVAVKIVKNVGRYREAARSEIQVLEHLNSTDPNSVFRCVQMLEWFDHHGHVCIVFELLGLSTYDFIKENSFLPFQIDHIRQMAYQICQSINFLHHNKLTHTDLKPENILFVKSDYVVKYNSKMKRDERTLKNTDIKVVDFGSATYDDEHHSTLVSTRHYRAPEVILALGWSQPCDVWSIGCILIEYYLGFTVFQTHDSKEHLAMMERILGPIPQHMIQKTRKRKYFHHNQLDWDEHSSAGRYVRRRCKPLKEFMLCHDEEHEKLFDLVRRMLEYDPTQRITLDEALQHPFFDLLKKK
As to conditions: CLK4, [ATP] 2.5 µM, compound 10 uM; for remaining activity at 10 µM: read-out: % Enzyme Activity (relative to DMSO controls).

For experiment [10], the target named is T10, 382 unique human kinases (Homo sapiens, UniProt Q15418).
T10 construct: purchased Reaction Biology (HotSpot contract assay)
T10 sequence (Q15418 whole entry): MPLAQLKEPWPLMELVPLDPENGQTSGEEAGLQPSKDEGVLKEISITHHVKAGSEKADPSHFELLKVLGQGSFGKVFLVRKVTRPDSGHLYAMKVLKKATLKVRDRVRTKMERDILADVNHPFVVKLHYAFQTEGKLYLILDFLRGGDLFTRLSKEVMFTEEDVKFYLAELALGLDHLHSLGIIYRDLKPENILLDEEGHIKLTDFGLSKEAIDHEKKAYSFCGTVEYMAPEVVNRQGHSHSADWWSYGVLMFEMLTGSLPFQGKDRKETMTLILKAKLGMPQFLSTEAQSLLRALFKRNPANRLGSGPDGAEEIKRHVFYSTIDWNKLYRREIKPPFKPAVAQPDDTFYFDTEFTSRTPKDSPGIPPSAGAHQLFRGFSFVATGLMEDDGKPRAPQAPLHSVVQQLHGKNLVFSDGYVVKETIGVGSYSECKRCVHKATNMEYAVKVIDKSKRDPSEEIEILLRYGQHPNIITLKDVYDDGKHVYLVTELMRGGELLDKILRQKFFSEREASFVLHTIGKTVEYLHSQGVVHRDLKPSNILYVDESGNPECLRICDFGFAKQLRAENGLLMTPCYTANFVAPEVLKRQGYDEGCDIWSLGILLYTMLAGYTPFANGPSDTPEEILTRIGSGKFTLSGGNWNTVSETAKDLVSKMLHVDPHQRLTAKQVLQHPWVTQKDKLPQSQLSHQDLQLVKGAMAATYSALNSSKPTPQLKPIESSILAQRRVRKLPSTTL
As to conditions: RSK1, [ATP] 20 µM, compound 10 uM; for remaining activity at 10 µM: read-out: % Enzyme Activity (relative to DMSO controls).

T1 sequence (P10721 26-976 V654A): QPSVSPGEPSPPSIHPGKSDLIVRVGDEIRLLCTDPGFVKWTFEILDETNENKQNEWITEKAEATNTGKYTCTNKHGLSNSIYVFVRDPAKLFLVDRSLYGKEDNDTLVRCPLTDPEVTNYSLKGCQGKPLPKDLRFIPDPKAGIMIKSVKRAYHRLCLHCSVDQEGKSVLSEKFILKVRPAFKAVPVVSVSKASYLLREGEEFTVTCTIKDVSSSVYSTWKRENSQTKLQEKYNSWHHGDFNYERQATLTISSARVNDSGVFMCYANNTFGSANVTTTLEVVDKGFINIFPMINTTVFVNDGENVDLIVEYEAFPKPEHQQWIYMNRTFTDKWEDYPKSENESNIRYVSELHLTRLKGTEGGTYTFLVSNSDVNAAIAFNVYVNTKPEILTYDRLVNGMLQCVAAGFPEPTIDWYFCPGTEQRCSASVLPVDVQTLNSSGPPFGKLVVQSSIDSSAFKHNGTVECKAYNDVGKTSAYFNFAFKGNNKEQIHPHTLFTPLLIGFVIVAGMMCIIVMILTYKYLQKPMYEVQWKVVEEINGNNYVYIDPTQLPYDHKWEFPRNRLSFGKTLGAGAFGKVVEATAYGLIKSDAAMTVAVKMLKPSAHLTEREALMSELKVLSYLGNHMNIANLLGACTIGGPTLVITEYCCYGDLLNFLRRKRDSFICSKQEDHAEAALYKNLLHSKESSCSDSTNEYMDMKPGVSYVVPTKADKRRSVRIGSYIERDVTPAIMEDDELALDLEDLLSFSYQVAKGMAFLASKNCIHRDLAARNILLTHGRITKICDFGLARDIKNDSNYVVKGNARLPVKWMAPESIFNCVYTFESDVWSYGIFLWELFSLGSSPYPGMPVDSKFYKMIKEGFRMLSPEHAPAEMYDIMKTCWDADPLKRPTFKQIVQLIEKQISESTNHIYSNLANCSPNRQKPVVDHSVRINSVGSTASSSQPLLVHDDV

Regarding `CC(C)c1cc(-c2n[nH]c(=O)n2-c2ccc3c(ccn3C)c2)c(O)cc1O` [Ganetespib (STA9090)], the remaining activity at 10 µM amounted to 81.4% at 382 unique human kinases [1]; 91.3% at 382 unique human kinases [2]; 113% at 382 unique human kinases [3]; 65.4% on 382 unique human kinases [4]; 75.4% on 382 unique human kinases [5].

Consider `CC(C)c1cc(-c2n[nH]c(=O)n2-c2ccc3c(ccn3C)c2)c(O)cc1O` [Ganetespib], for which the remaining activity at 10 µM on 382 unique human kinases [6] was found to be 100%; on 382 unique human kinases [7], 60.7%; at 382 unique human kinases [8] it was 5.88%; on 382 unique human kinases [9], 20.7%; on 382 unique human kinases [10] it was 54.1%.

`CCNC(=O)c1noc(-c2cc(C(C)C)c(O)cc2O)c1-c1ccc(CN2CCOCC2)cc1` [Luminespib (AUY-922)]: the “% Enzyme Activity (relative to DMSO controls)” value at 382 unique human kinases [1] came to 85.21%; at 382 unique human kinases [2] it was 96.62%; at 382 unique human kinases [3], 116.20%; at 382 unique human kinases [4], 96.25%; at 382 unique human kinases [5] it was 98.29%. Also, the remaining activity at 10 µM on 382 unique human kinases [1] was 85.8%; at 382 unique human kinases [2] it was 98%; on 382 unique human kinases [3], 116%; on 382 unique human kinases [4], 96.8%; on 382 unique human kinases [5] it was 99.3%.

In the case of `CCNC(=O)c1noc(-c2cc(C(C)C)c(O)cc2O)c1-c1ccc(CN2CCOCC2)cc1` [Luminespib], the “% Enzyme Activity (relative to DMSO controls)” value is 96.83% at 382 unique human kinases [6]; 101.19% on 382 unique human kinases [7]; 5.81% on 382 unique human kinases [8]; 71.69% at 382 unique human kinases [9]; 100.81% on 382 unique human kinases [10]. Besides, the remaining activity at 10 µM on 382 unique human kinases [6] worked out at 98.6%; at 382 unique human kinases [7], 102%; on 382 unique human kinases [8], 5.9%; on 382 unique human kinases [9], 72.1%; at 382 unique human kinases [10], 103%.

The values are drawn from PMC8550792, “Evolution of kinase polypharmacology across HSP90 drug discovery” (Cell Chemical Biology, 2021).
